From US20210205292A1, “INHIBITORS OF CREB-CBP INTERACTION FOR TREATMENT OF LEUKEMIA” (The Board of Trustees of the Leland Stanford Junior …, priority 2016, published 2021) come the findings set out here.

Common to all, as to type: cell-based
Assay [1] concerns the target T1, CREB-CBP binding (KID-KIX) (Homo sapiens, UniProt Q92793).
T1 construct: the KID and KIX domains were fused to the N- and C-terminal regions of Renilla luciferase, respectively; expressed in transfected cells; host or cells: 293T cells treated with forskolin
The assay can be described thus: Split Renilla luciferase complementation assay. Particulars: 293T cells treated with forskolin; read-out: IC50, inhibition of the interaction between CREB and CBP. As for the experimental part:
KG-1 cell lines were created to express luciferase in a CREB-dependent or non-CREB-dependent fashion using lentiviral gene delivery. Cells were sorted for mCherry expression by flow cytometry and selected with puromycin. Luciferase activity was measured on a […] using the Promega Luciferase Activity Kit (Promega) per manufacturer's instructions following six hours of treatment with Compound A or 0.1% DMSO. The split Renilla luciferase complementation assay has been described previously (Li BX, and Xiao X. Discovery of a small-molecule inhibitor of the KIX-KID interaction. Chembiochem: a European journal of chemical biology. 2009; 10(17):2721-4). In this assay, the KID and KIX domains were fused to the N- and C-terminal regions of Renilla luciferase, respectively. Once KIX binds phosphorylated KID, the Renilla luciferase regions were brought together, resulting in luciferase activity.
To test the ability of Compound A to disrupt CREB-CBP binding in cells, a split Renilla luciferase complementation assay was performed. […] This early timepoint was selected to permit accurate reporter gene activity measurement prior to the onset of anticipated global cell dysfunction or death induced by Compound A. Treatment with 3 μM Compound A reduced luciferase activity by 33.2±7.7% at this timepoint. […] Thus, Compound A inhibits CREB function through disruption of CREB:CBP interaction.

The target of the next assay is T2, CREB/CBP association (Homo sapiens, UniProt Q92793).
T2 construct: endogenous in cells; host or cells: HEK293 cells (CBP endogenous; CREB from a transfected plasmid)
T2 sequence (Q92793 whole entry): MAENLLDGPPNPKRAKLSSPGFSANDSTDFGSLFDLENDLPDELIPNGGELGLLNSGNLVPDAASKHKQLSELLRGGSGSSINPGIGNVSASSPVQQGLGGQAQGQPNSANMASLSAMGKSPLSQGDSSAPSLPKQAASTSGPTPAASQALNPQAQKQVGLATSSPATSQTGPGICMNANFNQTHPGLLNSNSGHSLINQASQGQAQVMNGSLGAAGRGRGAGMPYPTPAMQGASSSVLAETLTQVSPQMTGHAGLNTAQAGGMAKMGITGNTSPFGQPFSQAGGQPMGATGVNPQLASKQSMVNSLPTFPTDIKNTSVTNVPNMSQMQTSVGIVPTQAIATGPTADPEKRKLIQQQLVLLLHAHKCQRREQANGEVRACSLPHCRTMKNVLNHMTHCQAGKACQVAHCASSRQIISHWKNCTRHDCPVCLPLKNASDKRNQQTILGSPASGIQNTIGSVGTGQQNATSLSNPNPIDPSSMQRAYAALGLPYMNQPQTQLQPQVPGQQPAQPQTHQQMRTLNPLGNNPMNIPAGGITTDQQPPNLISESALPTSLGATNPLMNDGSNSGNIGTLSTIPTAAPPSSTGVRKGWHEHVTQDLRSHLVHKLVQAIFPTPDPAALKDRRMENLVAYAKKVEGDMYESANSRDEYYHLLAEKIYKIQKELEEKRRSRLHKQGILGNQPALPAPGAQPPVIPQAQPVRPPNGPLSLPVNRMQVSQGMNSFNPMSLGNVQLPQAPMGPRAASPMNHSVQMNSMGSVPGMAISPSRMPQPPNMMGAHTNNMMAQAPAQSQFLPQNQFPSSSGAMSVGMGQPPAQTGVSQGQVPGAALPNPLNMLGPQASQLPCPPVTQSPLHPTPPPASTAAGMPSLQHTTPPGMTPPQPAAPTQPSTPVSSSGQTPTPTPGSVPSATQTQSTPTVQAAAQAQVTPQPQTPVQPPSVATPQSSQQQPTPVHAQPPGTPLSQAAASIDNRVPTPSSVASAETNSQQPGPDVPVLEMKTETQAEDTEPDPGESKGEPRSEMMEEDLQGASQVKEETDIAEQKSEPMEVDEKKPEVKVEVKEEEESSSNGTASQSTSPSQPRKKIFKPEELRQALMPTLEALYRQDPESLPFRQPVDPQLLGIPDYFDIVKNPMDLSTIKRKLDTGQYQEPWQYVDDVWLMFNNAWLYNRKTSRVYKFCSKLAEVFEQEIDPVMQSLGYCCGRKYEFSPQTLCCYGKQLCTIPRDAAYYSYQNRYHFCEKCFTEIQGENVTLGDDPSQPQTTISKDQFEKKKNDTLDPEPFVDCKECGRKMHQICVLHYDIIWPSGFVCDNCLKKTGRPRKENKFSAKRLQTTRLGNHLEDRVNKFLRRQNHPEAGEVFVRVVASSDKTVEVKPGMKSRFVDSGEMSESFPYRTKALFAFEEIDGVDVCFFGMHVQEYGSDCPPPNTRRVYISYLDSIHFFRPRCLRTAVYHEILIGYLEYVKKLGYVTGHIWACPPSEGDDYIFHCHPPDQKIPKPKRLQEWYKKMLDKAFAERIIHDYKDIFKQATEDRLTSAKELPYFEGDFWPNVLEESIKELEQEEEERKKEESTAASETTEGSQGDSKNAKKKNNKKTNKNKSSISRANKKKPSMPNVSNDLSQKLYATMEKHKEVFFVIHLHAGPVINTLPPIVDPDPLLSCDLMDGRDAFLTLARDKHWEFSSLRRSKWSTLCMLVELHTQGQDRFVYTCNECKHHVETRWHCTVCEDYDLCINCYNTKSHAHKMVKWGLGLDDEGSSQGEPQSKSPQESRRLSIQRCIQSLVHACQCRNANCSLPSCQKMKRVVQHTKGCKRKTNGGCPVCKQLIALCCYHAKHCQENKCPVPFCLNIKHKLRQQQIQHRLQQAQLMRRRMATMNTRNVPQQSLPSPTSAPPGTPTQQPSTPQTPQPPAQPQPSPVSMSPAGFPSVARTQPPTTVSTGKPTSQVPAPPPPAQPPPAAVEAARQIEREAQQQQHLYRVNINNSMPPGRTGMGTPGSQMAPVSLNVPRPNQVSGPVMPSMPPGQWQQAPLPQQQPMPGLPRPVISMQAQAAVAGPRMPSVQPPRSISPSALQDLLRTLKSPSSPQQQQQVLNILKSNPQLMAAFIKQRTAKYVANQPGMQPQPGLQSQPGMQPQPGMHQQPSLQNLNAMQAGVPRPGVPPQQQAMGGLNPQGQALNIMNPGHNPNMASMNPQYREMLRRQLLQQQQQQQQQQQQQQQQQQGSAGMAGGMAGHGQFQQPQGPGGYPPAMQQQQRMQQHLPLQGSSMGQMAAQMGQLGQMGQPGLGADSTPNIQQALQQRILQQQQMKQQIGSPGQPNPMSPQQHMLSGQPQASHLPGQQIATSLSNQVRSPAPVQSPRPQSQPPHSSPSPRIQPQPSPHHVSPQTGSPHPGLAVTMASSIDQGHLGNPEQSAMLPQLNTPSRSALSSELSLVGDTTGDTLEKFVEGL
The assay can be described thus: Anti-CBP immunoprecipitation of CREB-transfected HEK293 cells. Particulars: HEK293 lysates or cells, 5 μM, 1 hour. How it is done: Mutation of Arginine-600 to Alanine reduced binding of Compound A by ˜45% at a concentration of 5 μM, while a KIX mutant lacking amino acids 586-602 reduced binding by ˜70%. Panel C) Binding model of Compound A to CBP KIX domain. […] Panel E). Two KG-1 cell lines were generated in which luciferase was expressed either under the control of a CREB-driven promoter (CRE) or a CMV-driven promoter (CMV). These two cell lines were each treated with a range of Compound A or Analog B concentrations for 6 hours. […] HEK293 cells were transfected with a plasmid expressing CREB. Cells were treated with Compound A (A, 5 μM, lane 3) or DMSO vehicle (D) for 1 hour. Total lysates of transfected HEK293 cells were immunoprecipitated using anti-CBP antibody. Compound A (A, 5 μM) was added during anti-CBP Immunoprecipation process (lane 1). Immunoprecipitates (CBP-IP) and total lysates were analyzed by immunoblotting for phospho-CREB (p-CREB) and CBP.
To test the ability of Compound A to disrupt CREB-CBP binding in cells, a split Renilla luciferase complementation assay was performed. […] This early timepoint was selected to permit accurate reporter gene activity measurement prior to the onset of anticipated global cell dysfunction or death induced by Compound A. Treatment with 3 μM Compound A reduced luciferase activity by 33.2±7.7% at this timepoint. […]

Another assay concerns AML cell lines. Nature of the assay: Viable cell count of AML cell lines (Vi-CELL). Particulars: four AML cell lines, 48 hours; range across lines, units printed with the values; read-out: IC50, 50% reduced viable cell count compared to DMSO-treated cells. As for the experimental part:
AML cell lines were purchased from ATCC and maintained with IMDM (Gibco) supplemented with 10% FBS (Fisher Scientific) and 1% PSG (Gibco). Cells were plated at a density of 2-4×10^5 cells/ml, and treated with various doses of Compound A in 0.1% DMSO or 0.1% DMSO alone. Cell counts and viability were determined using the Vi-CELL XR Cell Viability Analyzer (Beckman Coulter). HL-60 and KG-1 cells overexpressing CREB or CBP were generated using lentiviral gene delivery with subsequent puromycin selection and FACs sorting for GFP. CREB knockdown was achieved by infecting cells with a lentivirus expressing the shRNA sequence 5′-[…]-3′ (SEQ ID NO:). For chemotherapy combination experiments, combination index values were calculated using median effects analysis on Calcusyn software. Human patient bone marrow samples were cultured in DMEM plus 20% FBS and 1×PSG, supplemented with recombinant GM-CSF (20 ng/ml), G-CSF (20 ng/ml), SCF (50 ng/ml), IL-3 (20 ng/ml), and IL-6 (10 ng/ml). Cells were plated at a concentration of 1×10^5 cells/ml in a 12-well plate. Vehicle (0.1% DMSO) or Compound A (2 μM) was added for up to 72 hours. All samples contained >85% AML blasts and were not sorted prior to performing experiments. […] Single cell suspensions of bone marrow culture were subsequently analyzed on a D×P10 flow cytometer (Cytek). […]

Assay [2] relates to CREB target genes in KG-1 and HL-60 cells. Nature of the assay: RT-PCR of target genes in KG-1 and HL-60 cells. As for the experimental part:
Total RNA was isolated using the Aurum RNA Isolation Mini Kit, and the iScript cDNA Synthesis Kit was used to prepare samples for qPCR (Bio-Rad). PCR was performed on the CFX384 Real-Time System (Bio-Rad) and results were analyzed using the Livak method. For analysis of RNA-seq data as target genes of known transcription factors, a curated list of all human target genes was extracted from the TRANSFAC Pro database.
To assess for potential ‘off-target’ effects of Compound A, the RNA-Seq gene expression profiles of other transcription factors that bind CBP, including Rel, RelA, RelB, Foxo3, Foxo1 and Myb, were analyzed. […] PLoS One. 2011; 6(12):e28712) (FIG. 9, panel E).

Assay [3] has as its system Cyclin A1, Cyclin D1, Fra-1, RFC-3. Nature of the assay: Expression of CREB-regulated cell cycle genes. How it is done: Cyclin A1 and D1 expression was decreased following 12 hours of treatment, while Fra-1 and RFC-3 expression decreased following 48 hours of treatment.
Mol Cell Biol. 2004; 24(11):4696-709) (FIG. 6, panel C). […] Levels of RFC-3 also decrease following Compound A treatment (FIG. 6, panel C).

Several values for one entry are separate records, joined by “and”; a condition that tells them apart may be missing. Equal entries are not always repeated. Entries after “also recorded” stand apart in the source; their conditions may differ.

T1 sequence (Q92793 587-666 limits assumed): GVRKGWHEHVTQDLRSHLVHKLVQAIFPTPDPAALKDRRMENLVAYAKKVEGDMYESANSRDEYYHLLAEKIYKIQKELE

Broadly, the IC50 is the concentration needed to halve the response being measured. Regarding `N#Cc1ccc(NC(=O)c2cc3ccccc3cc2O)cc1` [Compound A, N-(4-cyanophenyl)-3-hydroxy-2-naphthamide], the concentration for half-maximal inhibition (IC50) in assay [1] was ~3.2 µM and 3.2 µM; in the assay with AML cell lines, 0.87 to 2.3 µM. In addition, the “binding of CREB to CBP (immunoprecipitation)” value at CREB/CBP association is “inhibits CREB/CBP association; also recorded: prevented binding of CREB to CBP”. For the same compound, in assay [2], the “Myb-driven gene expression (SP3, FPR1, PRODH, SLC34A2)” value is reported as “No changes in gene expression were observed”. In addition, the “CREB target gene expression (qPCR)” value in assay [2] (conditions as for RNA-Seq) is “consistently reduced CREB target gene expression”. The “Cyclin A1 and D1 expression” value in assay [3] (12 hours of treatment) is on record as “decreased”. Further, in assay [3] (48 hours of treatment), the “Fra-1 and RFC-3 expression” value is given as “decreased”.
